Several values for one entry are separate records, joined by “and”; a condition that tells them apart may be missing. Equal entries are not always repeated.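 Each compound was tested at five concentrations against cells in 96-well plates for 48 hours. GI50 is the concentration that inhibits growth by half. TGI: total growth inhibition.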

For the first assay, the system named is UO-31 renal. As to the kind of experiment: inhibition of tumour cell growth, NCI panel, 48 h.
Regarding `Clc1ccc2c(c1)N(c1ncnc3ccc(-c4cnc5[nH]ncc5c4)cc13)CC2`, the GI50 was 0.151 µM and the TGI was more than 100 µM.
On to `COc1ccc(-c2cnoc2-c2cc(OC)c3c(c2)OCCO3)cc1`, for which the GI50 is 0.283 µM and the TGI is more than 100 µM.
As to `CC(C)Oc1ccc(C(=O)Cn2ccnc2)cc1-n1c(CN2CCN(C(=O)COc3ccc(Cl)cc3)CC2)nc2ccccc2c1=O`, the GI50 was 1.56 µM and the TGI worked out at 2.98 µM.
Consider `COc1cccc(COc2cc(-n3cnc4ccccc43)sc2C(N)=O)c1`, for which the GI50 was more than 25 µM and the TGI was more than 25 µM.
For `CCN(CC)c1ccc(/C=C/C2=[N+](C)c3ccccc3C2(C)C)c(C)c1`, the GI50 was 0.088 µM and the TGI was 2.53 µM.
On the same counts, the results for `Fc1ccc2nc(-c3cc(-c4ccc5c(c4)OCO5)n[nH]3)[nH]c2c1` are 2.5 µM and more than 24 µM.
As for `COC(=O)c1ccc2c(c1)C(=O)c1c-2n(CCCN=[N+]=[N-])c(=O)c2cc([N+](=O)[O-])ccc12`, the GI50 was more than 100 µM and the TGI was more than 100 µM.
For the molecule `O=C(c1cccs1)C1NO[N+]([O-])=C1c1cccs1` (stereo not given), the GI50 is 0.27 µM and the TGI came to 1.47 µM.
In the case of `COc1c(O)c(OC)c2oc(-c3ccc(O)cc3)c(OC)c(=O)c2c1O`, the TGI is more than 100 µM.
Turning to `COc1ccc(C2=C(N3CCc4ccccc43)C(=O)NC2=O)cc1`, the GI50 was 9.88 µM and the TGI is more than 25 µM.
Consider `Cc1cc2c(cc1Cl)S/C(=C/C(=O)O)C(Nc1cccc3nsnc13)=NS2(=O)=O`, for which the GI50 was more than 51.1 µM and the TGI is more than 79.2 µM.
Turning to `COc1ccc(F)c(F)c1C(=O)c1cnc(NC2CCN(S(C)(=O)=O)CC2)nc1N`, the GI50 was 0.779 µM and 0.36 µM; the TGI is 6.96 µM and > 9.24 µM.
Consider `Nc1cc(-c2ccc(Cl)cc2)nn1-c1nnc(/C=C/c2ccco2)c(=O)[nH]1`, for which the GI50 was 2.41 µM and the TGI is 22.6 µM.
With `Cc1c(C)c(CC(=O)N2CC2)c(C)c(C)c1CC(=O)N1CC1`, the TGI was determined as 38.7 µM.
In the case of `O=C1c2ccccc2-c2c1c1c(NCCCO)nc3ccccc3c1n2Cc1ccccc1`, the GI50 was 24.6 µM and the TGI worked out at 73.7 µM.
`CCCCCCCCCCCCCCCCCCOCC(COCCOCC[N+]1(CCCCCC(=O)[O-])CCCC1)Oc1ncccn1` (stereo not given) returned a TGI of 23.6 µM.

The next assay relates to SF-295 CNS. The assay can be described thus: inhibition of tumour cell growth, NCI panel, 48 h.
For `Clc1ccc2c(c1)N(c1ncnc3ccc(-c4cnc5[nH]ncc5c4)cc13)CC2`, the GI50 was 0.632 µM and the TGI was more than 100 µM.
As for `COc1ccc(-c2cnoc2-c2cc(OC)c3c(c2)OCCO3)cc1`, the GI50 was less than 0.0108 µM and the TGI turned out to be 22.3 µM.
For the molecule `CC(C)Oc1ccc(C(=O)Cn2ccnc2)cc1-n1c(CN2CCN(C(=O)COc3ccc(Cl)cc3)CC2)nc2ccccc2c1=O`, the GI50 is 14.8 µM and the TGI stood at 31.6 µM.
With `COc1cccc(COc2cc(-n3cnc4ccccc43)sc2C(N)=O)c1`, the GI50 was more than 15.6 µM and the TGI is more than 25 µM.
As to `CCN(CC)c1ccc(/C=C/C2=[N+](C)c3ccccc3C2(C)C)c(C)c1`, the GI50 was 0.0358 µM and the TGI amounted to 1.49 µM.
With `Fc1ccc2nc(-c3cc(-c4ccc5c(c4)OCO5)n[nH]3)[nH]c2c1`, the GI50 was 4.99 µM and the TGI was more than 81.3 µM.
With `COC(=O)c1ccc2c(c1)C(=O)c1c-2n(CCCN=[N+]=[N-])c(=O)c2cc([N+](=O)[O-])ccc12`, the GI50 is 59.8 µM and the TGI was more than 100 µM.
`O=C(c1cccs1)C1NO[N+]([O-])=C1c1cccs1` (stereo not given): the GI50 is 6.07 µM and the TGI was 12.4 µM.
Molecule `COc1c(O)c(OC)c2oc(-c3ccc(O)cc3)c(OC)c(=O)c2c1O` yielded a TGI of more than 100 µM.
With `COc1ccc(C2=C(N3CCc4ccccc43)C(=O)NC2=O)cc1`, the GI50 is more than 25 µM and the TGI is more than 25 µM.
Take `Cc1cc2c(cc1Cl)S/C(=C/C(=O)O)C(Nc1cccc3nsnc13)=NS2(=O)=O`: the GI50 is more than 56.9 µM and the TGI was more than 71.5 µM.
For the molecule `COc1ccc(F)c(F)c1C(=O)c1cnc(NC2CCN(S(C)(=O)=O)CC2)nc1N`, the GI50 was 0.693 µM and 0.352 µM; the TGI is more than 100 µM.
`Nc1cc(-c2ccc(Cl)cc2)nn1-c1nnc(/C=C/c2ccco2)c(=O)[nH]1`: the GI50 is 2.1 µM and the TGI was 27.7 µM.
`Cc1c(C)c(CC(=O)N2CC2)c(C)c(C)c1CC(=O)N1CC1` had a TGI of 60.5 µM.
On to `O=C1c2ccccc2-c2c1c1c(NCCCO)nc3ccccc3c1n2Cc1ccccc1`, for which the GI50 was 22.3 µM and the TGI was determined as 45.3 µM.
`CCCCCCCCCCCCCCCCCCOCC(COCCOCC[N+]1(CCCCCC(=O)[O-])CCCC1)Oc1ncccn1` (stereo not given) gave a TGI of 27.2 µM.

The subject of a further assay is MCF7 breast. As to the kind of experiment: inhibition of tumour cell growth, NCI panel, 48 h.
As to `Clc1ccc2c(c1)N(c1ncnc3ccc(-c4cnc5[nH]ncc5c4)cc13)CC2`, the GI50 is 0.228 µM and the TGI is more than 100 µM.
In the case of `COc1ccc(-c2cnoc2-c2cc(OC)c3c(c2)OCCO3)cc1`, the GI50 was 0.0304 µM and the TGI is more than 100 µM.
`CC(C)Oc1ccc(C(=O)Cn2ccnc2)cc1-n1c(CN2CCN(C(=O)COc3ccc(Cl)cc3)CC2)nc2ccccc2c1=O`: the GI50 is 12 µM and the TGI amounted to 35.5 µM.
For `COc1cccc(COc2cc(-n3cnc4ccccc43)sc2C(N)=O)c1`, the GI50 was 1.08 µM and the TGI is more than 25 µM.
With `CCN(CC)c1ccc(/C=C/C2=[N+](C)c3ccccc3C2(C)C)c(C)c1`, the GI50 was 0.0574 µM and the TGI stood at 1.62 µM.
With `Fc1ccc2nc(-c3cc(-c4ccc5c(c4)OCO5)n[nH]3)[nH]c2c1`, the GI50 was 3.84 µM and the TGI was more than 100 µM.
For the molecule `COC(=O)c1ccc2c(c1)C(=O)c1c-2n(CCCN=[N+]=[N-])c(=O)c2cc([N+](=O)[O-])ccc12`, the GI50 is more than 100 µM and the TGI is more than 100 µM.
On to `O=C(c1cccs1)C1NO[N+]([O-])=C1c1cccs1` (stereo not given), for which the GI50 was 4.84 µM and the TGI stood at 16.3 µM.
Consider `COc1c(O)c(OC)c2oc(-c3ccc(O)cc3)c(OC)c(=O)c2c1O`, for which the TGI was more than 100 µM.
Turning to `COc1ccc(C2=C(N3CCc4ccccc43)C(=O)NC2=O)cc1`, the GI50 is more than 25 µM and the TGI is more than 25 µM.
Take `Cc1cc2c(cc1Cl)S/C(=C/C(=O)O)C(Nc1cccc3nsnc13)=NS2(=O)=O`: the GI50 was 32.7 µM and the TGI is more than 76.2 µM.
As for `COc1ccc(F)c(F)c1C(=O)c1cnc(NC2CCN(S(C)(=O)=O)CC2)nc1N`, the GI50 was 0.0674 µM and 0.0458 µM; the TGI is more than 100 µM.
For the molecule `Nc1cc(-c2ccc(Cl)cc2)nn1-c1nnc(/C=C/c2ccco2)c(=O)[nH]1`, the GI50 was 2.95 µM and the TGI came out at 26.1 µM.
With `Cc1c(C)c(CC(=O)N2CC2)c(C)c(C)c1CC(=O)N1CC1`, the TGI turned out to be 63.4 µM.
As to `O=C1c2ccccc2-c2c1c1c(NCCCO)nc3ccccc3c1n2Cc1ccccc1`, the GI50 was 17.2 µM and the TGI came to 31 µM.
Take `CCCCCCCCCCCCCCCCCCOCC(COCCOCC[N+]1(CCCCCC(=O)[O-])CCCC1)Oc1ncccn1` (stereo not given): the TGI is 16.1 µM.

The subject of another assay is CAKI-1 renal. The assay can be described thus: inhibition of tumour cell growth, NCI panel, 48 h.
`Clc1ccc2c(c1)N(c1ncnc3ccc(-c4cnc5[nH]ncc5c4)cc13)CC2`: the GI50 was 0.316 µM and the TGI is more than 100 µM.
With `COc1ccc(-c2cnoc2-c2cc(OC)c3c(c2)OCCO3)cc1`, the GI50 is 0.0409 µM and the TGI was more than 100 µM.
As for `CC(C)Oc1ccc(C(=O)Cn2ccnc2)cc1-n1c(CN2CCN(C(=O)COc3ccc(Cl)cc3)CC2)nc2ccccc2c1=O`, the GI50 is 4.04 µM and the TGI was found to be 9.25 µM.
As for `COc1cccc(COc2cc(-n3cnc4ccccc43)sc2C(N)=O)c1`, the GI50 was more than 25 µM and the TGI is more than 25 µM.
In the case of `CCN(CC)c1ccc(/C=C/C2=[N+](C)c3ccccc3C2(C)C)c(C)c1`, the GI50 was 0.926 µM and the TGI came out at 12 µM.
For `Fc1ccc2nc(-c3cc(-c4ccc5c(c4)OCO5)n[nH]3)[nH]c2c1` the same measures were 2.44 µM and more than 55.7 µM.
On the same counts, the results for `COC(=O)c1ccc2c(c1)C(=O)c1c-2n(CCCN=[N+]=[N-])c(=O)c2cc([N+](=O)[O-])ccc12` are more than 100 µM and more than 100 µM.
On the same counts, the results for `O=C(c1cccs1)C1NO[N+]([O-])=C1c1cccs1` (stereo not given) are 1.61 µM and 3.41 µM.
As for `COc1c(O)c(OC)c2oc(-c3ccc(O)cc3)c(OC)c(=O)c2c1O`, the TGI was more than 100 µM.
Take `COc1ccc(C2=C(N3CCc4ccccc43)C(=O)NC2=O)cc1`: the GI50 is more than 25 µM and the TGI was more than 25 µM.
On to `Cc1cc2c(cc1Cl)S/C(=C/C(=O)O)C(Nc1cccc3nsnc13)=NS2(=O)=O`, for which the GI50 was 56 µM and the TGI was more than 76.6 µM.
As for `COc1ccc(F)c(F)c1C(=O)c1cnc(NC2CCN(S(C)(=O)=O)CC2)nc1N`, the GI50 was 1.05 µM and 0.232 µM; the TGI is more than 100 µM.
In the case of `Nc1cc(-c2ccc(Cl)cc2)nn1-c1nnc(/C=C/c2ccco2)c(=O)[nH]1`, the GI50 is 0.842 µM and the TGI was determined as 7.04 µM.
On to `Cc1c(C)c(CC(=O)N2CC2)c(C)c(C)c1CC(=O)N1CC1`, for which the TGI came to 32.4 µM.
In the case of `O=C1c2ccccc2-c2c1c1c(NCCCO)nc3ccccc3c1n2Cc1ccccc1`, the GI50 was 18.6 µM and the TGI stood at 38.4 µM.
The molecule `CCCCCCCCCCCCCCCCCCOCC(COCCOCC[N+]1(CCCCCC(=O)[O-])CCCC1)Oc1ncccn1` (stereo not given) had a TGI of 22.7 µM.

For a further assay, the system named is MOLT-4 leukemia. As to the kind of experiment: inhibition of tumour cell growth, NCI panel, 48 h.
As for `Clc1ccc2c(c1)N(c1ncnc3ccc(-c4cnc5[nH]ncc5c4)cc13)CC2`, the GI50 was 0.465 µM and the TGI was more than 100 µM.
In the case of `COc1ccc(-c2cnoc2-c2cc(OC)c3c(c2)OCCO3)cc1`, the GI50 is 0.0638 µM and the TGI is more than 100 µM.
For `CC(C)Oc1ccc(C(=O)Cn2ccnc2)cc1-n1c(CN2CCN(C(=O)COc3ccc(Cl)cc3)CC2)nc2ccccc2c1=O` the same measures were 7.55 µM and more than 71.8 µM.
For the molecule `COc1cccc(COc2cc(-n3cnc4ccccc43)sc2C(N)=O)c1`, the GI50 was more than 14.8 µM and the TGI is more than 25 µM.
Take `CCN(CC)c1ccc(/C=C/C2=[N+](C)c3ccccc3C2(C)C)c(C)c1`: the GI50 is 0.0512 µM and the TGI stood at 1.55 µM.
On the same counts, the results for `Fc1ccc2nc(-c3cc(-c4ccc5c(c4)OCO5)n[nH]3)[nH]c2c1` are 2.56 µM and more than 69.4 µM.
On to `COC(=O)c1ccc2c(c1)C(=O)c1c-2n(CCCN=[N+]=[N-])c(=O)c2cc([N+](=O)[O-])ccc12`, for which the GI50 is 30.2 µM and the TGI is more than 100 µM.
With `O=C(c1cccs1)C1NO[N+]([O-])=C1c1cccs1` (stereo not given), the GI50 was 2.86 µM and the TGI was determined as 9.19 µM.
Regarding `COc1c(O)c(OC)c2oc(-c3ccc(O)cc3)c(OC)c(=O)c2c1O`, the TGI is more than 100 µM.
For the molecule `COc1ccc(C2=C(N3CCc4ccccc43)C(=O)NC2=O)cc1`, the GI50 was 25 µM and the TGI was more than 25 µM.
For `Cc1cc2c(cc1Cl)S/C(=C/C(=O)O)C(Nc1cccc3nsnc13)=NS2(=O)=O`, the GI50 is 17.9 µM and the TGI is more than 59.4 µM.
Regarding `COc1ccc(F)c(F)c1C(=O)c1cnc(NC2CCN(S(C)(=O)=O)CC2)nc1N`, the GI50 was 0.39 µM and 0.321 µM; the TGI was more than 100 µM.
As for `Nc1cc(-c2ccc(Cl)cc2)nn1-c1nnc(/C=C/c2ccco2)c(=O)[nH]1`, the GI50 was 3.17 µM and the TGI is more than 43 µM.
In turn, `Cc1c(C)c(CC(=O)N2CC2)c(C)c(C)c1CC(=O)N1CC1` displayed a TGI of 2.91 µM.
`O=C1c2ccccc2-c2c1c1c(NCCCO)nc3ccccc3c1n2Cc1ccccc1`: the GI50 is 5.94 µM and the TGI is 42.8 µM.
With `CCCCCCCCCCCCCCCCCCOCC(COCCOCC[N+]1(CCCCCC(=O)[O-])CCCC1)Oc1ncccn1` (stereo not given), the TGI stood at 20.7 µM.
